One data set relates to IFN-gamma. The data set is described as follows: Mitogen (Concanavalin A) induced IFN-gamma production by splenocyte mononuclear cells of treated mice, ELISA. The note with it: splenocytes of B16-bearing mice treated as in Example 3, Concanavalin A 5 μg/mL, saline control about 200 ng/mL, FIG. 2. It counts as in vivo. How it is done:
FIG. 2 illustrates the stimulation of mitogen induced IFN-gamma production by pterostilbene in mice. Mice were treated as described in FIG. 1 (from left to right: saline; 25 μg/kg pterostilbene; 500 IU/mouse IL-2; and a combination of IL-2 and pterostilbene at the indicated concentrations). Mononuclear cells were obtained and plated in 96-well plates and treated with Concanavalin A at 5 μg/mL. IFN-gamma was assessed by ELISA. The y-axis is expressed as ng/mL.
Mice from Example 3 where euthanized by cervical dislocation and spleens were excised in a sterile manner. Splenocyte mononuclear cells were obtained by hypotonic lysis and washed 3 times in PBS. Mononuclear cells were plated in 96 well plates and treated with Concanavalin A at 5 μg/mL. Interferon gamma was assessed by ELISA and expressed as ng/mL. […] In contrast, mononuclear cells of mice treated with pterostilbene alone expressed about 900 ng/mL IFN-gamma, and mononuclear cells of mice treated with the combination of pterostilbene and IL-2 expressed about 1500 ng/mL IFN-gamma. As disclosed herein, enhanced expression of IFN-gamma elicits an immune response.

For data set [1] the following is noted: in vivo; cited from earlier work.
The conditions of data set [2]: cited from earlier work.
The conditions of data set [3]: in vivo; cited from earlier work. This is another data set of the same source.

The values below come from patent US9682047B2, “Augmentation of oncology immunotherapies by pterostilbene containing compositions” (THERAPEUTIC SOLUTIONS INTERNATIONAL, INC., priority 2015, dated 2017).

Take `COc1cc(/C=C/c2ccc(O)cc2)cc(OC)c1` [pterostilbene, trans-3,5-dimethoxy-4′-hydroxy-trans-stilbene]: the “IFN-gamma expressed by mononuclear cells” value in the data set on IFN-gamma was “about 900 ng/mL”. Moreover, the half-life result in data set [1] is listed as “approximately 2 hr”. Further, the “solubility in aqueous solution” value in data set [2] was “sparingly soluble”.

Consider `Oc1ccc(/C=C/c2cc(O)cc(O)c2)cc1` [t-RESV, trans-3,5,4′-trihydroxystilbene], for which the systemic bioavailability entry in data set [3] is on record as “low”.
